Source: patent publication US7550425B2, “Diuretic peptide conjugates” (Zealand Pharma A/S, priority 2000, dated 2009)
Read-outs that look alike come from different tables or passages of the source. Peptide text beside a SMILES is read from it.

Experiments:
human ORL1 receptor [1] = target: T1, human ORL1 receptor (human, UniProt P41146 1-370); test: cell-based or functional assay
hORL1 receptor [2] = target: T2, hORL1 receptor (Homo sapiens, UniProt P41146); test: Efficacy: inhibition of forskolin-induced cAMP formation, hORL1 in CHO cells; type: cell-based; parameters: expressed in transfected cells; host or cells: CHO
Excerpt: The ORL1 receptor is negatively coupled to cAMP and thus the effect of ORL1 agonists are detected as an inhibition of forskolin-incuced cAMP formation. Six compounds of the invention have been tested for efficacy on hORL1 receptor expressed in CHO cells.

hORL1 receptor [3] = target: T2, hORL1 receptor; test: Binding to human ORL1 receptor expressed in CHO cells; parameters: expressed in transfected cells; host or cells: CHO
[4] = tested on: nociceptin-induced smooth muscle relaxation in mouse vas deferens; test: Mouse vas deferens assay: antagonism of nociceptin-induced relaxation (Schild pA2); details: Schild equation; antagonism of nociceptin-induced relaxation; n = 4
Procedure: (§1) The vas deferens from male NMRI albino mice weighing 30-40 g were placed in a SCHULER organ bath Type 809, Hugo Sachs Elektronik, Germany, and perfused with a 37° C., modified Krebs solution (NaCl 6,9 g/L, KCl 0.35 g/L, KH2PO4 0.16 g/L, NaHCO3 2.1 g/L, Glucose H2O 2.0 g/L, CaCl2 2.52 mL/L). The solution was gassed with carbogen (95% O2 and 5% CO2) throughout the experiment. The tissue was electrically stimulated through two silver electrodes directly in the organ bath using a HSE Stimulator I Type 215. Stimulation of the tissue was performed by applying a supramaximal voltage (15 Volts) in trains of 10 square pulses every 60 s, each of 1 ms duration with a frequency of […]. Concentration-response curves were performed by adding test substances that relax mouse vas deferens smooth muscles cumulatively to the organ baths. The test substances used in the assay were nociceptin in an isotonic saline solution, Compound 1 (as the trifluoroacetate in an isotonic saline solution), Compound 2 (as the trifluoroacetate in an isotonic saline solution), and the hexapeptide Ac-RYYRWK-NH2 (SEQ ID NO: 1) (as the trifluoroacetate in an isotonic saline solution).
The effects of Ac-RYYRWK-NH2 (SEQ ID NO: 1) and Compound 1 on nociceptin-induced relaxation in the mouse vas deferens assay were also tested. […] Using the Schild equation ^[7], the pA2 values which indicates affinity of a compound as an antagonist were calculated.

[5] = In vitro stability in heparinised human plasma; type: in vitro ADME
Procedure: In addition, the degradation of Compound 1 of the invention has been studied in heparinised human plama.
The stability of peptides is analysed in human plasma. The peptides are incubated at 37° C. in plasma and samples taken at approx. 8 regular intervals between t=0 and t=390 min for Compound 1 and nociceptin-NH2, and at 9 intervals between t=0 and t=32 min for Compound CE1 are analysed by HPLC. […] This is done by subsequent injections of the drug, plasma, and a co-injection with the drug and the plasma, followed by optimisation of the LC method parameters until a satisfactory separation is obtained. Three parallel experiments are performed for each plasma type. 100 μl of peptide is mixed with 900 μl plasma at t=0 and incubated at 37° C. (drug-plasma mixture conc. 0.1 mg/ml). Samples of 100 μl of the drug-plasma mixture are removed at appropriate intervals and the degradation stopped by precipitation of the sample with 10 μl MeCN:TFA 50:50 v/v. A control plasma sample without the drug treated in the same manner is also taken. The plasma samples are centrifuged for 15 min. at 12,000 rpm (Eppendorf centrifuge) at ambient temperature. The resulting supernatant solution is transferred to 300 μl HP autosamler vials and analyzed by HPLC. HPLC analysis are performed as follows:
Ac-RYYRWK-NH2 (SEQ ID NO: 1) and Compound 1
The samples are analysed in the following order: blank, the peptide at 0.1 mg/mL, the plasma without the peptide, the three parallel samples for t=0, the three parallel samples for t=5 min. the three parallel samples for t=60 min. etc. And finally the three parallel samples for t=0 are repeated to make sure that there have been no degradation or other failure during the analyses. The sample concentrations (peak height in mAU) are plotted vs. time and fitted to a function describing a mono exponential decay (Excel). The half-lives of the peptides in plasma are presented in Table 7 as mean (n=3)±standard deviation.

mouse vas deferens = test: Mouse vas deferens assay: inhibition of electrically-induced contraction; details: cumulative addition; data not shown
Excerpt: The compounds of the present invention are pharmacologically active, e.g. as nociceptin agonists or partial agonists, and a useful method of showing activity is described by Hughes J., Kosterlitz H. W., Leslie F. M.: Effect of morphine on adrenergic transmission in the mouse vas deferens. Assessment of agonist and antagonist potencies of narcotic analgesics^[4]. The isolated electrically stimulated mouse vas deferens preparation has been widely used to evaluate the functional pharmacological actions of opioid agonists and antagonists in vitro^[5].
as §1

[6] = In vitro stability in heparin stabilised mouse plasma; type: in vitro ADME; details: heparinised mouse plasma, 37° C., read-out: half-life t½ of degradation
Procedure: Degradation of peptides is almost exclusively seen in the presence of enzymes, e.g. in the bloodstream. An important feature of a putative drug is whether it is quickly degraded in vivo or whether it is able to conduct its effects over a longer period of time. To be able to examine the stability of the peptide conjugates of the present invention degradation was tested in heparin stabilised mouse plasma (obtained from Harlan Seralab, UK).
The stability studies were run in triplicate. 100 μL of a 1 mg/mL solution of the test compound (peptide conjugate) was added to an Eppendorf tube, containing 900 μL plasma, incubated at 37° C. Immediately after addition, a sample of 100 μL was removed and added to an Eppendorf tube, containing 10 μL of extraction solution (50% TFA (trifluoroacetic acid) in MeCN, v/v). This sample constitutes t=0. […] The samples are centrifuged at 20,000×g, and the supernatant was transferred to vials and analysed by high-performance liquid chromatography (HPLC).
The analysis was performed on a HP1100 HPLC with a quaternary pump. The column used was a Vydac 201SP5215, and the apparatus comprises an autosampler, a column oven, a variable UV detector and a fluorescence detector. […] These values were transferred to Microsoft Excel, where half-lives (t½) and rate constant (kobs) for Ac-RYYRWK-NH2 (SEQ ID NO: 1) and Compound 1 were determined by fitting to the equation.

human ORL1 receptor [7] = target: T1, human ORL1 receptor; test: cell-based or functional assay; remark: listed apart in the source
human ORL1 receptor [8] = target: T1, human ORL1 receptor; test: displacement of [3H]-labeled nociceptin, HEK293 cells transfected with the human ORL1 receptor
human ORL1 receptor [9] = target: T1, human ORL1 receptor; test: cell-based or functional assay; remark: listed apart in the source
human ORL1 receptor [10] = target: T1, human ORL1 receptor; test: binding to hORL1 receptor expressed in CHO cells, one experiment

T1 sequence (P41146 whole entry): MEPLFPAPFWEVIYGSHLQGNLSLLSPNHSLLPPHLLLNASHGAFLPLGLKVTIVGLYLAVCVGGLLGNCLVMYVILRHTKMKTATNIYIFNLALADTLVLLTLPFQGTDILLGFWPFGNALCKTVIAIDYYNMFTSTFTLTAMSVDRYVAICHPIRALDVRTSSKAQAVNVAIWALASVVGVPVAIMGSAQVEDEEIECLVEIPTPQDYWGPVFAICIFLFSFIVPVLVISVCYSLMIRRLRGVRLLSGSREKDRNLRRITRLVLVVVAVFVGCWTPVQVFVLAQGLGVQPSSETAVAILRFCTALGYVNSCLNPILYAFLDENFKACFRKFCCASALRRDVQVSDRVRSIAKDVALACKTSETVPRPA
T2 sequence (P41146 whole entry): as above

## Compound 8 Ac-D-Arg-D-Tyr-D-Tyr-D-Arg-D-Trp-D-Lys-D-Lys-D-Lys-D-Lys-D-Lys-D-Lys-D-Lys-NH2 (peptide)
Human ORL1 receptor [1]
  Efficacy EC50 (nM), inhibition of forskolin-induced cAMP formation: 59 nM

## CC(=O)N[C@H](CCCNC(=N)N)C(=O)N[C@H](Cc1ccc(O)cc1)C(=O)N[C@H](Cc1ccc(O)cc1)C(=O)N[C@H](CCCNC(=N)N)C(=O)N[C@H](Cc1c[nH]c2ccccc12)C(=O)N[C@H](CCCCN)C(=O)N[C@H](CCCCN)C(=O)N[C@H](CCCCN)C(=O)N[C@H](CCCCN)C(=O)N[C@H](CCCCN)C(=O)N[C@H](CCCCN)C(=O)N[C@H](CCCCN)C(N)=O [Compound 8, Ac-RYYRWKKKKKKK-NH2 (all D)] (HELM PEPTIDE1{[ac].[dR].[dY].[dY].[dR].[dW].[dK].[dK].[dK].[dK].[dK].[dK].[dK].[am]}$$$$V2.0)
hORL1 receptor [2]
  EC50: 59 nM
hORL1 receptor [3]
  IC50: 78 nM

## CC(=O)N[C@H](CCCCN)C(=O)N[C@H](CCCCN)C(=O)N[C@H](CCCCN)C(=O)N[C@H](CCCCN)C(=O)N[C@H](CCCCN)C(=O)N[C@H](CCCCN)C(=O)N[C@H](CCCCN)C(=O)N[C@H](Cc1c[nH]c2ccccc12)C(=O)N[C@H](CCCNC(=N)N)C(=O)N[C@H](Cc1ccc(O)cc1)C(=O)N[C@H](Cc1ccc(O)cc1)C(=O)N[C@H](CCCNC(=N)N)C(N)=O [Compound 7, Ac-KKKKKKKWRYYR-NH2 (all D)] (HELM PEPTIDE1{[ac].[dK].[dK].[dK].[dK].[dK].[dK].[dK].[dW].[dR].[dY].[dY].[dR].[am]}$$$$V2.0)
hORL1 receptor [3]
  IC50: > 100 nM

## Ac-RYYRWK-NH2 [Compound CE1, Ac-Arg-Tyr-Tyr-Arg-Trp-Lys-NH2, reference compound]
[4]
  pA2 value: 7.8 (n = 4)
[5]; 37° C., mean (n=3) +/− deviation, read-out: T1/2 in min (degradation in human heparinised plasma)
  half-life at 0.1 mg/ml: 50.7 min
[5]; read-out: half life in plasma
  half-life at 0.1 mg/ml: < 60 min
Mouse vas deferens
  potency order for inhibition of electrically-induced contraction of the mouse vas deferens: nociceptin>Compound 1=Compound 2>>Ac-RYYRWK-NH2
[6]
  half-life at 0.1 mg/mL: 2 to 5 min

B1: Compound 1 Ac-Arg-Tyr-Tyr-Arg-Trp-Lys-Lys-Lys-Lys-Lys-Lys-Lys-NH2 (peptide)
peptide: Ac-RYYRWKKKKKKK-NH2
modifications: also: trifluoroacetate salt
notes: Synthetic peptide conjugate; the primary product is the trifluoroacetate salt; also called Compound I
Human ORL1 receptor [7]
  inhibition of forskoline-induced formation of cAMP, EC50: 0.54 nM
  inhibition of forskoline-induced formation of cAMP, relative maximum relative to nociceptin: 92%
Human ORL1 receptor [8]
  Ki: 0.26 nM
Human ORL1 receptor [9]
  Efficacy EC50 (nM), inhibition of forskolin-induced cAMP formation: 0.58 nM
Human ORL1 receptor [10]
  IC50: 0.32 nM
